According to patent US20240043404A1 (AbbVie Inc., priority 2009, published 2024):

Each compound was assayed against Bcl-2 (Homo sapiens (Human), UniProt P10415) (assay: Time Resolved-Fluorescence Resonance Energy Transfer (TR-FRET) Bcl-2 binding assay). Conditions: not given.
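Throughout, for RS4; 11 EC50 Values: acute lymphoblastic leukemia line RS4,11, EC50 derived from percentage of viable cells after treatment relative to untreated controls, cell killing taken as a measure of Bcl-2 inhibition.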
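Throughout, for RS4; 11 EC50: acute lymphoblastic leukemia line RS4,11, EC50 derived from percentage of viable cells after treatment relative to untreated controls, cell killing taken as a measure of Bcl-2 inhibition.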

Bcl-2, sequence (P10415 whole entry): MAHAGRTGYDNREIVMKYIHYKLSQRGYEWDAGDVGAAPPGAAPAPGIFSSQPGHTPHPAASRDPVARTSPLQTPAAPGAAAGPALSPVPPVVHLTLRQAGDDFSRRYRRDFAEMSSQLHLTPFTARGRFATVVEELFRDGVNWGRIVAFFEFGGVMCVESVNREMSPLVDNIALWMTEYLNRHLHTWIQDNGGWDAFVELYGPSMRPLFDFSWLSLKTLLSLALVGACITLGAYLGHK

Row | SMILES | Ki
1 | CC1(C)CCC(CN2CCN(c3ccc(C(=O)NS(=O)(=O)c4ccc(OC[C@H]5CC[C@@H](N6CCOCC6)C5)c([N+](=O)[O-])c4)c(Oc4cnc5[nH]ccc5c4)c3)CC2)=C(c2ccc(Cl)cc2)C1 (relative stereo) [Example 188] | < 0.01 nM

Same assay, conditions: GST-Bcl-2 1 nM, F-Bak peptide probe 100 nM, Tb-anti-GST 1 nM; < means below limit of detection; read-out: TR-FRET Bcl-2 Binding Ki

Row | SMILES | Ki
2 | CC1(C)CCC(CN2CCN(c3ccc(C(=O)NS(=O)(=O)c4ccc(OC[C@H]5CC[C@H](O)CC5)c([N+](=O)[O-])c4)c(Oc4cnc5[nH]ccc5c4)c3)CC2)=C(c2ccc(Cl)cc2)C1 [Example 196, Trans-4-(4-{[2-(4-chlorophenyl)-4,4-dimethylcyclohex-1-en-1-yl]methyl}piperazin-1-yl)-N-({4-[(4-hydroxycyclohexyl)methoxy]-3-nitrophenyl}sulfonyl)-2-(1H-pyrrolo[2,3-b]pyridin-5-yloxy)benzamide] | < 0.01 nM

Same assay, conditions: Table 5, direct comparison Z=N with corresponding analogs Z=C; read-out: Bcl-2 FRET ki

Row | SMILES | Ki
3 | CN1CCC(Nc2ccc(S(=O)(=O)NC(=O)c3ccc(N4CCN(CC5=C(c6ccc(Cl)cc6)CC(C)(C)CC5)CC4)cc3Oc3cnc4[nH]ccc4c3)cc2[N+](=O)[O-])CC1 [Example 4, 4-(4-{[2-(4-chlorophenyl)-4,4-dimethylcyclohex-1-en-1-yl]methyl}piperazin-1-yl)-N-({4-[(1-methylpiperidin-4-yl)amino]-3-nitrophenyl}sulfonyl)-2-(1H-pyrrolo[2,3-b]pyridin-5-yloxy)benzamide] | < 0.01 nM

The compounds below were run on RS4;11 cells (assay: RS4;11 cell viability assay (CellTiter Glo)). Conditions: 50,000 cells per well, 10% human serum, 48 hours; read-out: RS4; 11 EC50 Values.
Format: cell-based, human
Protocol: The acute lymphoblastic leukemia (ALL) cell line RS4;11 was used as the primary human cell line to assess the cellular activity of Bcl-2 selective agents in vitro and their efficacy in vivo.
Cell cytotoxicity EC50 values were assessed using CellTiter Glo (Promega) according to the manufacturer's recommendations. The EC50 values were determined as a percentage of viable cells following treatment compared to the untreated control cells.

Row | EC50 | SMILES
4 | 18.8 nM | CC1(C)CCC(CN2CCN(c3ccc(C(=O)NS(=O)(=O)c4cnc(OC[C@]5(F)CC[C@@](C)(O)CC5)c(Cl)c4)c(Oc4cnc5[nH]ccc5c4)c3)CC2)=C(c2ccc(Cl)cc2)C1 [Example 355, N-({5-chloro-6-[(trans-1-fluoro-4-hydroxy-4-methylcyclohexyl)methoxy]pyridin-3-yl}sulfonyl)-4-(4-{[2-(4-chlorophenyl)-4,4-dimethylcyclohex-1-en-1-yl]methyl}piperazin-1-yl)-2-(1H-pyrrolo[2,3-b]pyridin-5-yloxy)benzamide]

Same assay, conditions: Homo sapiens, RS4-11, 48 h, 50,000 cells per well, 10% human serum, 48 hours; read-out: RS4; 11 EC50 Values

Row | SMILES | EC50
5 | CC1(C)CCC(CN2CCN(c3ccc(C(=O)NS(=O)(=O)c4ccc(OC[C@H]5CC[C@@H](N6CCOCC6)C5)c([N+](=O)[O-])c4)c(Oc4cnc5[nH]ccc5c4)c3)CC2)=C(c2ccc(Cl)cc2)C1 (relative stereo) [Example 188] | 16.4 nM
6 | CN1CCC(Nc2ccc(S(=O)(=O)NC(=O)c3ccc(N4CCN(CC5=C(c6ccc(Cl)cc6)CC(C)(C)CC5)CC4)cc3Oc3cnc4[nH]ccc4c3)cc2[N+](=O)[O-])CC1 [Example 4, 4-(4-{[2-(4-chlorophenyl)-4,4-dimethylcyclohex-1-en-1-yl]methyl}piperazin-1-yl)-N-({4-[(1-methylpiperidin-4-yl)amino]-3-nitrophenyl}sulfonyl)-2-(1H-pyrrolo[2,3-b]pyridin-5-yloxy)benzamide] | 18.5 nM
7 | CC1(C)CCC(CN2CCN(c3ccc(C(=O)NS(=O)(=O)c4ccc(NC5CCC(NC6CC6(F)F)CC5)c([N+](=O)[O-])c4)c(Oc4cnc5[nH]ccc5c4)c3)CC2)=C(c2ccc(Cl)cc2)C1 (stereo not drawn) [Example 349, 4-(4-{[2-(4-chlorophenyl)-4,4-dimethylcyclohex-1-en-1-yl]methyl}piperazin-1-yl)-N-{[4-({4-[(2,2-difluorocyclopropyl)amino]cyclohexyl}amino)-3-nitrophenyl]sulfonyl}-2-(1H-pyrrolo[2,3-b]pyridin-5-yloxy)benzamide] | 23.1 nM
8 | CC1(C)CCC(CN2CCN(c3ccc(C(=O)NS(=O)(=O)c4ccc(OCC5CN(C6CC6)CCO5)c([N+](=O)[O-])c4)c(Oc4cnc5[nH]ccc5c4)c3)CC2)=C(c2ccc(Cl)cc2)C1 (stereo not drawn) [Example 354, 4-(4-{[2-(4-chlorophenyl)-4,4-dimethylcyclohex-1-en-1-yl]methyl}piperazin-1-yl)-N-({4-[(4-cyclopropylmorpholin-2-yl)methoxy]-3-nitrophenyl}sulfonyl)-2-(1H-pyrrolo[2,3-b]pyridin-5-yloxy)benzamide] | 53.2 nM
9 | CC1(C)CCC(CN2CCN(c3ccc(C(=O)NS(=O)(=O)c4ccc(OCC5(F)CCN(C6COC6)CC5)c(C#N)c4)c(Oc4cnc5[nH]ccc5c4)c3)CC2)=C(c2ccc(Cl)cc2)C1 [Example 357, 4-(4-{[2-(4-chlorophenyl)-4,4-dimethylcyclohex-1-en-1-yl]methyl}piperazin-1-yl)-N-[(3-cyano-4-{[4-fluoro-1-(oxetan-3-yl)piperidin-4-yl]methoxy}phenyl)sulfonyl]-2-(1H-pyrrolo[2,3-b]pyridin-5-yloxy)benzamide] | 13.2 nM
10 | CC1(C)CCC(CN2CCN(c3ccc(C(=O)NS(=O)(=O)c4ccc(OCC5(F)CCC(N(CCC#N)C6CC6)CC5)c([N+](=O)[O-])c4)c(Oc4cnc5[nH]ccc5c4)c3)CC2)=C(c2ccc(Cl)cc2)C1 (stereo not drawn) [Example 363, 4-(4-{[2-(4-chlorophenyl)-4,4-dimethylcyclohex-1-en-1-yl]methyl}piperazin-1-yl)-N-{[4-({4-[(2-cyanoethyl)(cyclopropyl)amino]-1-fluorocyclohexyl}methoxy)-3-nitrophenyl]sulfonyl}-2-(1H-pyrrolo[2,3-b]pyridin-5-yloxy)benzamide] | 26.4 nM
11 | CC1(C)CCC(CN2CCN(c3ccc(C(=O)NS(=O)(=O)c4cnc(NCC5CCOCC5)c([N+](=O)[O-])c4)c(Oc4cnc5[nH]ccc5c4)c3)CC2)=C(c2ccc(Cl)cc2)C1 [Example 364, 4-(4-{[2-(4-chlorophenyl)-4,4-dimethylcyclohex-1-en-1-yl]methyl}piperazin-1-yl)-N-({5-nitro-6-[(tetrahydro-2H-pyran-4-ylmethyl)amino]pyridin-3-yl}sulfonyl)-2-(1H-pyrrolo[2,3-b]pyridin-5-yloxy)benzamide] | 11.2 nM
12 | CC1(C)CCC(CN2CCN(c3ccc(C(=O)NS(=O)(=O)c4ccc(NCC5CCC(C)(C#N)CC5)c([N+](=O)[O-])c4)c(Oc4cnc5[nH]ccc5c4)c3)CC2)=C(c2ccc(Cl)cc2)C1 (stereo not drawn) [Example 366, 4-(4-{[2-(4-chlorophenyl)-4,4-dimethylcyclohex-1-en-1-yl]methyl}piperazin-1-yl)-N-[(4-{[(4-cyano-4-methylcyclohexyl)methyl]amino}-3-nitrophenyl)sulfonyl]-2-(1H-pyrrolo[2,3-b]pyridin-5-yloxy)benzamide] | 16.5 nM
13 | COCC1CCC(CNc2ccc(S(=O)(=O)NC(=O)c3ccc(N4CCN(CC5=C(c6ccc(Cl)cc6)CC(C)(C)CC5)CC4)cc3Oc3cnc4[nH]ccc4c3)cc2[N+](=O)[O-])CC1 (stereo not drawn) [Example 374, 4-(4-{[2-(4-chlorophenyl)-4,4-dimethylcyclohex-1-en-1-yl]methyl}piperazin-1-yl)-N-{[4-({[4-(methoxymethyl)cyclohexyl]methyl}amino)-3-nitrophenyl]sulfonyl}-2-(1H-pyrrolo[2,3-b]pyridin-5-yloxy)benzamide] | 15.5 nM
14 | CC1(C)CCC(CN2CCN(c3ccc(C(=O)NS(=O)(=O)c4cnc(OCC5CCN(c6nccs6)CC5)c(Cl)c4)c(Oc4cnc5[nH]ccc5c4)c3)CC2)=C(c2ccc(Cl)cc2)C1 [Example 375, 4-(4-{[2-(4-chlorophenyl)-4,4-dimethylcyclohex-1-en-1-yl]methyl}piperazin-1-yl)-N-[(5-chloro-6-{[1-(1,3-thiazol-2-yl)piperidin-4-yl]methoxy}pyridin-3-yl)sulfonyl]-2-(1H-pyrrolo[2,3-b]pyridin-5-yloxy)benzamide] | 560 nM

More lines, now with the values ahead:

Row | EC50 | SMILES
15 | 2.06 nM | CC1(C)CCC(CN2CCN(c3ccc(C(=O)NS(=O)(=O)c4ccc(OCC5CCC6(CC5)COC6)c([N+](=O)[O-])c4)c(Oc4cnc5[nH]ccc5c4)c3)CC2)=C(c2ccc(Cl)cc2)C1 [Example 351, 4-(4-{[2-(4-chlorophenyl)-4,4-dimethylcyclohex-1-en-1-yl]methyl}piperazin-1-yl)-N-{[3-nitro-4-(2-oxaspiro[3.5]non-7-ylmethoxy)phenyl]sulfonyl}-2-(1H-pyrrolo[2,3-b]pyridin-5-yloxy)benzamide]
16 | 5.05 nM | O=C(NS(=O)(=O)c1ccc(NCC2CCOCC2)c([N+](=O)[O-])c1)c1ccc(N2CCN(CC3=C(c4ccc(Cl)cc4)CCC(CF)(CF)C3)CC2)cc1Oc1cnc2[nH]ccc2c1 [Example 353, 4-(4-{[2-(4-chlorophenyl)-5,5-bis(fluoromethyl)cyclohex-1-en-1-yl]methyl}piperazin-1-yl)-N-({3-nitro-4-[(tetrahydro-2H-pyran-4-ylmethyl)amino]phenyl}sulfonyl)-2-(1H-pyrrolo[2,3-b]pyridin-5-yloxy)benzamide]
17 | 9.9 nM | COCC1(C)CCC(c2ccc(Cl)cc2)=C(CN2CCN(c3ccc(C(=O)NS(=O)(=O)c4ccc(NCC5CCOCC5)c([N+](=O)[O-])c4)c(Oc4cnc5[nH]ccc5c4)c3)CC2)C1 (stereo not drawn) [Example 360, 4-(4-{[2-(4-chlorophenyl)-5-(methoxymethyl)-5-methylcyclohex-1-en-1-yl]methyl}piperazin-1-yl)-N-({3-nitro-4-[(tetrahydro-2H-pyran-4-ylmethyl)amino]phenyl}sulfonyl)-2-(1H-pyrrolo[2,3-b]pyridin-5-yloxy)benzamide]
18 | 0.538 nM | CC1(C)CCC(CN2CCN(c3ccc(C(=O)NS(=O)(=O)c4ccc(NC[C@H]5CN(C6COC6)CCO5)c([N+](=O)[O-])c4)c(Oc4cnc5[nH]ccc5c4)c3)CC2)=C(c2ccc(Cl)cc2)C1 [Example 361, 4-(4-{[2-(4-chlorophenyl)-4,4-dimethylcyclohex-1-en-1-yl]methyl}piperazin-1-yl)-N-{[3-nitro-4-({[(2S)-4-(oxetan-3-yl)morpholin-2-yl]methyl}amino)phenyl]sulfonyl}-2-(1H-pyrrolo[2,3-b]pyridin-5-yloxy)benzamide]
19 | 3.02 nM | CC1(C)CCC(CN2CCN(c3ccc(C(=O)NS(=O)(=O)c4ccc(NCC5CCC6(CC5)COC6)c([N+](=O)[O-])c4)c(Oc4cnc5[nH]ccc5c4)c3)CC2)=C(c2ccc(Cl)cc2)C1 [Example 365, 4-(4-{[2-(4-chlorophenyl)-4,4-dimethylcyclohex-1-en-1-yl]methyl}piperazin-1-yl)-N-({3-nitro-4-[(2-oxaspiro[3.5]non-7-ylmethyl)amino]phenyl}sulfonyl)-2-(1H-pyrrolo[2,3-b]pyridin-5-yloxy)benzamide]
20 | 6.76 nM | COC1(C)CCC(c2ccc(Cl)cc2)=C(CN2CCN(c3ccc(C(=O)NS(=O)(=O)c4ccc(NCC5CCOCC5)c([N+](=O)[O-])c4)c(Oc4cnc5[nH]ccc5c4)c3)CC2)C1 (stereo not drawn) [Example 378, 4-(4-{[2-(4-chlorophenyl)-5-methoxy-5-methylcyclohex-1-en-1-yl]methyl}piperazin-1-yl)-N-({3-nitro-4-[(tetrahydro-2H-pyran-4-ylmethyl)amino]phenyl}sulfonyl)-2-(1H-pyrrolo[2,3-b]pyridin-5-yloxy)benzamide]

Same assay, conditions: Homo sapiens, RS4-11, Table 5, direct comparison Z=N with corresponding analogs Z=C; read-out: RS4; 11 EC50

Row | SMILES | EC50
21 | CN1CCC(Nc2ccc(S(=O)(=O)NC(=O)c3ccc(N4CCN(CC5=C(c6ccc(Cl)cc6)CC(C)(C)CC5)CC4)cc3Oc3cnc4[nH]ccc4c3)cc2[N+](=O)[O-])CC1 [Example 4, 4-(4-{[2-(4-chlorophenyl)-4,4-dimethylcyclohex-1-en-1-yl]methyl}piperazin-1-yl)-N-({4-[(1-methylpiperidin-4-yl)amino]-3-nitrophenyl}sulfonyl)-2-(1H-pyrrolo[2,3-b]pyridin-5-yloxy)benzamide] | 19 nM
